{
  "source": "patent US20140275237A1",
  "about": "“BERAPROST ISOMER AS AN AGENT FOR THE TREATMENT OF VIRAL INFECTION” (priority 2013, published 2014)",
  "key": {"[1]": {"tested_on": "Influenza A/Duck/MN/1525/81 (H5N1)", "design": "species or system mice", "settings": "mouse, in vivo"}, "[2]": {"tested_on": "Influenza A/Duck/MN/1525/81 (H5N1)", "design": "species or system mice", "settings": "mouse, in vivo", "remark": "listed apart in the source"}, "[3]": {"tested_on": "Influenza A/Duck/MN/1525/81 (H5N1)", "design": "species or system mice", "settings": "mouse, in vivo", "remark": "listed apart in the source"}, "[4]": {"tested_on": "human PBMCs activated with Poly r(I:C)", "assay": "cells", "type": "cell-based", "settings": "for EC50: read-out: EC50 for reduction of cytokine release (TNFalpha production) from human PBMCs"}, "[5]": {"tested_on": "Influenza A/Duck/MN/1525/81 (H5N1)", "design": "species or system mice", "settings": "mouse, in vivo", "remark": "listed apart in the source"}, "[6]": {"tested_on": "Influenza A/Duck/MN/1525/81 (H5N1)", "design": "species or system mice", "settings": "mouse, in vivo", "remark": "listed apart in the source"}},
  "note": "Read-outs that look alike come from different tables or passages of the source.",
  "data": [
    {"molecule": "CC#CC[C@H](C)[C@H](O)/C=C/[C@@H]1[C@H]2c3cccc(CCCC(=O)[O-])c3O[C@H]2C[C@H]1O.[Na+]", "note": "(single isomer, unassigned; isomer a) [Isomer A]", "values": [
      {"measurement": "Average % loss (animal weight loss as percent of initial weight)", "setting": "[1]", "value": 76, "unit": "%"},
      {"measurement": "Mean number of cells (lung)", "setting": "[2]", "value": 1.15},
      {"measurement": "Lung cytokine concentration, CCL2 Average", "setting": "[3]", "value": 953, "unit": "pg/mL"},
      {"measurement": "Lung cytokine concentration, IFNg Average", "setting": "[3]", "value": 1046, "unit": "pg/mL"},
      {"measurement": "Lung cytokine concentration, IL-6 Average", "setting": "[3]", "value": 521, "unit": "pg/mL"},
      {"measurement": "Lung cytokine concentration, IL-10 Average", "setting": "[3]", "value": 223, "unit": "pg/mL"},
      {"measurement": "Lung cytokine concentration, IL-12 Ave", "setting": "[3]", "value": 3800, "unit": "pg/mL"},
      {"measurement": "EC50", "setting": "[4]", "value": 4, "unit": "nM"},
      {"measurement": "Lung score, Mean", "setting": "[5]", "value": 2.00},
      {"measurement": "Lung weight, Mean", "setting": "[5]", "value": 0.22, "unit": "grams"},
      {"measurement": "MDD (mean day of death)", "setting": "[6]", "value": 13},
      {"measurement": "Survival", "setting": "[6]", "value": "4/10"}
    ]},
    {"molecule": "CC#CCC(C)C(O)C=CC1C(O)CC2Oc3c(CCCC(=O)O)cccc3C21", "note": "(single isomer, unassigned; isomer d) [Isomer D]", "values": [
      {"measurement": "Average % loss (animal weight loss as percent of initial weight)", "setting": "[1]", "value": 68, "unit": "%"},
      {"measurement": "Lung cytokine concentration, CCL2 Average", "setting": "[3]", "value": 2347, "unit": "pg/mL"},
      {"measurement": "Lung cytokine concentration, IFNg Average", "setting": "[3]", "value": 2074, "unit": "pg/mL"},
      {"measurement": "Lung cytokine concentration, IL-6 Average", "setting": "[3]", "value": 1291, "unit": "pg/mL"},
      {"measurement": "Lung cytokine concentration, IL-10 Average", "setting": "[3]", "value": 758, "unit": "pg/mL"},
      {"measurement": "Lung cytokine concentration, IL-12 Ave", "setting": "[3]", "value": 2603, "unit": "pg/mL"},
      {"measurement": "EC50 for reduction of cytokine release (TNFalpha production) from human PBMCs", "setting": "[4]", "value": "No"},
      {"measurement": "Lung score, Mean", "setting": "[5]", "value": 3.50},
      {"measurement": "Lung weight, Mean", "setting": "[5]", "value": 0.37, "unit": "grams"},
      {"measurement": "MDD (mean day of death)", "setting": "[6]", "value": 7},
      {"measurement": "Survival", "setting": "[6]", "value": "0/10"}
    ]},
    {"molecule": "CC#CCC(C)C(O)C=CC1C(O)CC2Oc3c(CCCC(=O)[O-])cccc3C21.[Na+]", "note": "(centres unmarked) [Beraprost, 2,3,3a,8b-tetrahydro-2-hydroxyl-1-(3-hydroxyl-4-methyl-1-octen-6-ynyl)-1H-cyclopenta[b]benzofuran-5-butanoic acid, sodium salt]", "values": [
      {"measurement": "Average % loss (animal weight loss as percent of initial weight)", "setting": "[1]", "value": 76, "unit": "%"},
      {"measurement": "Mean number of cells (lung)", "setting": "[2]", "value": 2.63},
      {"measurement": "Lung cytokine concentration, CCL2 Average", "setting": "[3]", "value": 1308, "unit": "pg/mL"},
      {"measurement": "Lung cytokine concentration, IFNg Average", "setting": "[3]", "value": 1601, "unit": "pg/mL"},
      {"measurement": "Lung cytokine concentration, IL-6 Average", "setting": "[3]", "value": 604, "unit": "pg/mL"},
      {"measurement": "Lung cytokine concentration, IL-10 Average", "setting": "[3]", "value": 621, "unit": "pg/mL"},
      {"measurement": "Lung cytokine concentration, IL-12 Ave", "setting": "[3]", "value": 3517, "unit": "pg/mL"},
      {"measurement": "EC50", "setting": "[4]; Homo sapiens, PBMC, 18 h", "value": 11, "unit": "nM"},
      {"measurement": "Lung score, Mean", "setting": "[5]", "value": 2.0},
      {"measurement": "Lung weight, Mean", "setting": "[5]", "value": 0.24, "unit": "grams"},
      {"measurement": "MDD (mean day of death)", "setting": "[6]", "value": 11.5},
      {"measurement": "Survival", "setting": "[6]", "value": "3/10"}
    ]}
  ]
}
